Drawing on patent US7304068B2, “Substituted pyrazolo [1,5-A] pyrimidinyls and pharmaceutical uses therefore” (SmithKline Beecham Corporation, priority 2002, dated 2007), this text covers IC50 for six compounds.

This experiment concerns HSV-1. As to the kind of experiment: HSV-1 replication in infected Vero 76 cells, DNA hybridization capture assay. The format is cell-based, herpes simplex virus 1. Particulars: Human alphaherpesvirus 1; HSV-1 infected Vero 76 cells (MOI=0.001), 40-48 hours incubation, HSV DNA detected by hybridization/chemiluminescence. The procedure:
Vero 76 cells were maintained in MEM with Earle's salts, L-glutamine, 8% FBS (Hyclone, A-1111-L) and 100 units/mL Penicillin-100 μg/mL Streptomycin. For assay conditions, FBS was reduced to 2%. Cells are seeded into 96-well tissue culture plates at a density of 5×10^4 cells/well after being incubated for 45 min at 37° C. in the presence of HSV-1 or HSV-2 (MOI=0.001). Test compounds are added to the wells and the plates are incubated at 37° C. for 40-48 hours. Cell lysates are prepared as follows: media was removed and replaced with 150 μL/well 0.2 N NaOH with 1% igepal CA 630 or NP-40. Plates were incubated up to 14 days at room temperature in a humidified chamber to prevent evaporation.
For the detection probe, a gel-purified, digoxigenin-labeled, 710-bp PCR fragment of the HSV UL-15 sequence was utilized. PCR conditions included 0.5 μM primers, 180 μM dTTP, 20 μM dUTP-digoxigenin (Boehringer Mannheim 1558706), 200 μM each of dATP, dCTP, and dGTP, 1× PCR Buffer II (Perkin Elmer), 2.5 mM MgCl2, 0.025 units/μL of AmpliTaq Gold polymerase (Perkin Elmer), and 5 ng of gel-purified HSV DNA per 100 μL Extension conditions were 10 min at 95° C., followed by 30 cycles of 95° C. for 1 min, 55° C. for 30 sec, and 72° C. for 2 min. The amplification was completed with a 10-min incubation at 72° C. Primers were selected to amplify a 728 bp probe spanning a section of the HSV1 UL15 open reading frame (nucleotides 249-977). Single-stranded transcripts were purified with Promega M13 Wizard kits. The final product was mixed 1:1 with a mixture of 6 M GuSCN, 100 mM EDTA and 200 μg/mL herring sperm DNA and stored at 4° C.
The capture DNA plasmid (HSV UL13 region in pUC) was linearized by cutting with Xba I, denatured for 15 min at 95° C. and diluted immediately into Reacti-Bind DNA Coating Solution (Pierce, 17250, diluted 1:1 with TE buffer, pH 8) at 1 ng/μL. 75 μL/well were added to Corning (#3922 or 9690) white 96-well plates and incubated at room temperature for at least 4 hrs before washing twice with 300 μL/well 0.2×SSC/0.05% Tween-20 (SSC/T buffer). The plates were then incubated overnight at room temperature with 150 μL/well 0.2 N NaOH, 1% IGEPAL and 10 μg/mL herring sperm DNA.
Twenty-seven (27) μL of cell lysate was combined with 45 μL of hybridization solution (final concentration: 3M GuSCN, 50 mM EDTA, 100 μg/ml salmon sperm DNA, 5× Denhardt's solution, 0.25× APE, and 5 ng of the digoxigenin-labeled detection probe). APE is 1.5 M NH4-acetate, 0.15 M NH4H2 phosphate, and 5 mM EDTA adjusted to pH 6.0. Mineral oil (50 μL) was added to prevent evaporation. The hybridization plates were incubated at 95° C. for 10 minutes to denature the DNA, then incubated at 42° C. overnight. The wells were washed 6× with 300 μL/well SSC/T buffer then incubated with 75 μL/well anti-digoxigenin-HRP-conjugated antibody (Boehringer Mannheim 1207733, 1:5000 in TE) for 30 min at room temperature. The wells were washed 6× with 300 μL/well with PBS/0.05% Tween-20 before 75 μL/well SuperSignal LBA substrate (Pierce) was added. The plates were incubated at room temperature for 30 minutes and chemiluminescence was measured in a Wallac Victor reader.
The following results were obtained for HSV-1.
As to `Fc1cc(-c2c(-c3ccccc3)nn3c(N4CCCC4)ccnc23)ccn1` [Example 1, 3-(2-Fluoropyridin-4-yl)-2-phenyl-7-pyrrolidin-1-ylpyrazolo[1,5-α]pyrimidine], the midpoint of inhibition, the IC50, lay at 28 µM. Take `c1ccc(-c2nn3c(N4CCCC4)ccnc3c2-c2ccnc(NC3CCCC3)c2)cc1` [Example 2, N-Cyclopentyl-4(2-phenyl-7-pyrrolidin-1-ylpyrazolo[1,5-α]pyrimidin-3-yl)pyridin-2-amine]: the IC50 worked out at 0.8 µM. To `COc1ccc(-c2nn3c(NC4CCCC4)ccnc3c2-c2ccnc(NC3CCCC3)c2)cc1` [Example 4, N-Cyclopentyl-3-[2-(cyclopentylamino)-4-pyridinyl]-2-(4-methoxyphenyl)pyrazolo[1,5-α]pyrimidin-7-amine] belongs 0.6 µM; to `c1ccc(-c2nn3c(NC4CCCC4)ccnc3c2-c2ccnc(NC3CCCC3)c2)cc1` [Example 3, N-Cyclopentyl-3-[2-(cyclopentylamino)pyridin-4-yl]-2-phenylpyrazolo[1,5-α]pyrimidin-7-amine], 0.3 µM. The compound `Fc1ccc(-c2nn3c(NC4CCCC4)ccnc3c2-c2ccnc(NC3CCCC3)c2)cc1` [Example 5, N-Cyclopentyl-3-[2-(cyclopentylamino)-4-pyridinyl]-2-(4-fluorophenyl)pyrazolo[1,5-α]pyrimidin-7-amine] yielded an IC50 of 1.2 µM.

In turn, `COc1ccc(-c2nn3c(NC4CCCC4)ccnc3c2-c2ccnc(NC3CCCC3)n2)cc1` [Example 6, N-Cyclopentyl-3-[2-(cyclopentylamino)pyrimidin-4-yl]-2-(4-methoxyphenyl)pyrazolo[1,5-α]pyrimidin-7-amine] gave an IC50 of 2.4 µM.

The IC50 is the concentration needed to halve the response being measured.
